The values below come from publication PMC3826149, “Red Algal Bromophenols as Glucose 6-Phosphate Dehydrogenase Inhibitors” (Marine Drugs, 2013).

The target of assay [1] is T1, glucose 6-phosphate dehydrogenase (G6PD) (Leuconostoc mesenteroides, UniProt P11411).
T1 construct: purchased Sigma-Aldrich (St. Louis, MO, USA)
T1 sequence (P11411 1-486): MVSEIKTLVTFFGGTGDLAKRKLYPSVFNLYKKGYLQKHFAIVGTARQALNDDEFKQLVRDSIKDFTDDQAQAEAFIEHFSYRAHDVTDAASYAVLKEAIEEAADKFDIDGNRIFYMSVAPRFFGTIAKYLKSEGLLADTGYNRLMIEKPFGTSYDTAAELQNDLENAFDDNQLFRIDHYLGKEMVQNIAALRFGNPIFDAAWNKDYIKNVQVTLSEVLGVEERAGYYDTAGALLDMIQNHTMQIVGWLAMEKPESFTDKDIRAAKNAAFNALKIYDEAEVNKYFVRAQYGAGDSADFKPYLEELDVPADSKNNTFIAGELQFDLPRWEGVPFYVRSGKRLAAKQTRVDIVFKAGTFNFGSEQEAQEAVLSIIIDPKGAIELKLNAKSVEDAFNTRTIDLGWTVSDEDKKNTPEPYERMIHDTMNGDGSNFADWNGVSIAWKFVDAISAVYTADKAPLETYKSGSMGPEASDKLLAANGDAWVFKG
Put plainly: G6PD enzyme inhibition assay (colorimetric, WST-1/1-methoxy PMS). To be noted: for IC50: Mean ± SD (n = 3), glucose 6-phosphate 3.0 mM, NADP+ 0.3 mM, read-out: IC50 on glucose 6-phosphate dehydrogenase (G6PD) reaction; for G6PD inhibition in words: qualitative statement. The format is biochemical. The text has this:
G6PD (EC 1.1.1.49) from Leuconostoc mesenteroides was purchased from Sigma-Aldrich (St. Louis, MO, USA). WST-1 and 1-methoxy-5-methylphenazinium methylsulfate (1-methoxy PMS) were purchased from Dojindo Laboratories (Mashiki, Kumamoto, Japan) and oxidized nicotinamide adenine dinucleotide phosphate (NADP^+) from Oriental Yeast Industries (Tokyo, Japan). Glucose 6-phosphate was purchased from Wako Pure Chemicals (Tokyo, Japan). Epigallocatechin gallate (EGCG) was purchased from Cayman Chemical Company (Ann Arbor, MI, USA). Thin layer chromatography (TLC) was carried out using a glass plate precoated with silica gel 60 F254 and RP-18 (Merck, Darmstadt, Germany), and spots were detected under UV light and visualized by spraying 50% sulfuric acid and potassium ferricyanide-ferric chloride reagents. NMR spectra were recorded in acetone-d6 on a Bruker AMX-500 (Karlsruhe, Germany) spectrometer at 500 MHz for proton and 125 MHz for carbon chemical shifts. Field desorption-MS spectra were recorded on a JEOL JMS-T100GCV spectrometer (Tokyo, Japan).
Enzyme assay was carried out by colorimetric method as described in literature with slight modification. The reaction mixture was prepared by adding 135 mM Tris-HCl buffer (pH 7.8, 675 μL), 30 mM glucose 6-phosphate (100 μL), 3 mM NADP^+ (100 μL), 20 mM MgCl2 (100 μL) and test materials in MeOH (15 μL). Reaction was initiated by adding 0.035 U/mL G6PD solution (10 μL) to the reaction mixture. Each reaction was carried out at 25 °C for 15 min and terminated by adding 1 mL of saturated aqueous NaCl solution. For determination of produced NADPH, 0.05 mM WST-1 (400 μL) and 0.025 mM 1-methoxy PMS (400 μL) were mixed to the reaction mixture (400 μL) and the absorbance was measured at 438 nm. EGCG was used as a positive control.
For orientation: Tetrazolium dyes change colour on reduction, which living cells bring about.

Another assay has as its target purified α-glucosidase. Further details: method as in PMID 20629879. To be noted: previous study; cited from earlier work.
Setting [2] is: read-out: Inhibition (%) of G6PD.

Turning to `OCc1cc(O)c(O)c(Br)c1` [Compound 2], in assay [1], the IC50 (usually the point on the concentration scale where inhibition reaches its midpoint) was over 370 µM and the “G6PD inhibition in words” value is reported as “low inhibition”. The inhibition (as a rule, the change of the read-out against control, counted positive when it falls) at 370 µM in assay [1] (setting [2]) is 37.6%.
On to `OCc1cc(O)c(O)c(Br)c1Cc1cc(O)c(O)c(Br)c1Br` [Compound 4], for which, in assay [1], the IC50 is 4.01 ± 0.3 µM.
The same measure, in the same setting: as for `O=Cc1cc(Br)c(O)c(Br)c1` [Compound 1], the figure is 76.6 ± 1.1 µM.
`COCc1cc(O)c(O)c(Br)c1` [Compound 3]: in assay [1], the IC50 is over 340 µM and the “G6PD inhibition in words” value was “low inhibition”. The inhibition at 340 µM in assay [1] (setting [2]) is 35.7%.
Take `O=C(O[C@@H]1Cc2c(O)cc(O)cc2O[C@@H]1c1cc(O)c(O)c(O)c1)c1cc(O)c(O)c(O)c1` [Epigallocatechin gallate, reference compound]: the half-inhibitory concentration (IC50) in assay [1] is 7.7 ± 0.14 µM.
As to `Oc1cc(COCc2cc(O)c(O)c(Br)c2Br)c(Br)c(Br)c1O` [Compound 5], the “fold lower IC50 value than epigallocatechin gallate (EGCG)” value in assay [1] (G6PD IC50 relative to known inhibitor EGCG) was determined as 9.1 fold. In addition, the IC50 in assay [1] was 0.85 ± 0.1 µM; at purified α-glucosidase, 1 to 1.2 mM.
